In patent US20100249145A1, “Inhibitors of VEGF Receptor and HGF Receptor Signaling” (Methylgene, Inc., priority 2005, published 2010):
Where a name gives a salt, the structure may show the parent alone.

Assays:
[1] = molecular target: T1, recombinant human c-Met/HGF receptor (Homo sapiens, UniProt P08581); assay: In vitro receptor tyrosine kinase assay (DELFIA), c-Met/HGF receptor; format: biochemical; conditions: Table 30; ATP 10 uM, enzyme 25 nM; read-out: C-Met (enz.) (IC50)
T1 construct: His tag (histidine tag from pBlueBacHis2A); made in house; host or cells: Hi-5 cells (Trichoplusia ni), recombinant baculovirus

[2] = molecular target: T2, VEGF receptor KDR (Homo sapiens, UniProt P35968); assay: In vitro receptor tyrosine kinase assay (DELFIA), VEGF receptor KDR; format: biochemical; conditions: Table 30; ATP 0.6 uM, enzyme 5 nM; read-out: VEGF(enz.) (IC50)
T2 construct: made in house; host or cells: Sf9 cells (Spodoptera frugiperda), recombinant baculovirus

[3] = molecular target: TPR-MET fusion protein (Homo sapiens, UniProt P08581); assay: C-Met phosphorylation cell-based assay (MNNGHOS cells, immunoblot); conditions: Table 30, 3 hours treatment, read-out: C-Met cell-based Y1230-34-35 tpr-met inhibition (IC50)
Source text: C-Met Phosphorylation Cell-Based Assay

[4] = test system: A549; assay: In vivo solid tumor disease model, A549 xenograft; parameters: species or system female athymic CD 1 mice
[5] = test system: U87 cells; assay: In vivo solid tumor disease model, U87 xenograft; parameters: species or system female athymic CD 1 mice; conditions: U87MG
Source text: (§1) In Vivo Solid Tumor Disease Model
(§2) This test measures the capacity of compounds to inhibit solid tumor growth.
(§3) Tumor xenografts were established in the flank of female athymic CD 1 mice (Charles River Inc.), by subcutaneous injection of 1×10^6U87, A431 or SKLMS cells/mouse. Once established, tumors were then serially passaged s.c. in nude mice hosts. Tumor fragments from these host animals were used in subsequent compound evaluation experiments. For compound evaluation experiments female nude mice weighing approximately 20 g were implanted s.c. by surgical implantation with tumor fragments of ˜30 mg from donor tumors. When the tumors were approximately 100 mm^3 in size (˜7-10 days following implantation), the animals were randomized a separated into treatment and control groups. Each group contained 6-8 tumor-bearing mice, each of which was ear-tagged and followed individually throughout the experiment
(§4) Mice were weighed and tumor measurements are taken by calipers three times weekly, starting on Day 1. These tumor measurements were converted to tumor volume by the well-known formula (L+W/4)^34/3π. The experiment was terminated when the control tumors reached a size of approximately 1500 mm^3. In this model, the change in mean tumor volume for a compound treated group/the change in mean tumor volume of the control group (non-treated or vehicle treated)×100 (ΔT/ΔC) was subtracted from 100 to give the percent tumor growth inhibition (% TGI) for each test compound. In addition to tumor volumes, body weight of animals were monitored twice weekly for up to 3 weeks.
(§5) Regiment of administration was once daily.

[6] = test system: SKLMS cells; assay: In vivo solid tumor disease model, SKLMS xenograft; parameters: species or system female athymic CD 1 mice; conditions: SKLMS40, 75 mg/kg once daily PO, vehicle 5% DMSO - 1% Tween-80 in water
Source text: as §1, §2, §3, §4, §5

[7] = test system: DU145; assay: In vivo solid tumor disease model, DU145 xenograft; parameters: species or system female athymic CD 1 mice; conditions: 30 mg/kg once daily IP, vehicle DMSO, 10 days
[8] = 75 mg/kg once daily PO, vehicle 5% DMSO - 1% Tween-80 in water, 14 days
[9] = 30 mg/kg once daily IP, vehicle DMSO, 10 days
[10] = 75 mg/kg once daily PO, vehicle 5% DMSO - 1% Tween-80 in water, 10 days

T1 sequence (P08581 1078-1337): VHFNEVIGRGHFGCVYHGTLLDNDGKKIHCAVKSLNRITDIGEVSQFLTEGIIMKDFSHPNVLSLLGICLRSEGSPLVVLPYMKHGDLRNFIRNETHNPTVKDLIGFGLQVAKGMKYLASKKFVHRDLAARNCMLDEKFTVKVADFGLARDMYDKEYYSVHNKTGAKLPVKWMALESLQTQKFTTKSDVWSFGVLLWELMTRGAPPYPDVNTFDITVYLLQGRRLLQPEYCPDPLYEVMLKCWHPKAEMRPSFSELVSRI
T2 sequence (P35968 806-1356): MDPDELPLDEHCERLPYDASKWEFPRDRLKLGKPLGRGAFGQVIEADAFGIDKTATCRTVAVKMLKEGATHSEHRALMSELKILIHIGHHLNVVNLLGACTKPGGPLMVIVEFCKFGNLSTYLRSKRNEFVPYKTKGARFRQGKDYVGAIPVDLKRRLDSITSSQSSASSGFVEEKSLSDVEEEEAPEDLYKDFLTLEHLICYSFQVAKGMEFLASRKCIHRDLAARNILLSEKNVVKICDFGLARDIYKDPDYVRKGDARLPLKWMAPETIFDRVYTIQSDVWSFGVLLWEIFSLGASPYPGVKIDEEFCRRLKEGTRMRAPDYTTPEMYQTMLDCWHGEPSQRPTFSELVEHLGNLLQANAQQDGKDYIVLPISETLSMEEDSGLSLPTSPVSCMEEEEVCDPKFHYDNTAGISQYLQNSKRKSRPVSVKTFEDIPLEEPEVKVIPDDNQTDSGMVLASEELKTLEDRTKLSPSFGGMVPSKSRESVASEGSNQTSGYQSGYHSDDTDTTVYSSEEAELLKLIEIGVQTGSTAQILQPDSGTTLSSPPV
TPR-MET fusion protein, sequence (P08581 with tags, fused parts or gaps): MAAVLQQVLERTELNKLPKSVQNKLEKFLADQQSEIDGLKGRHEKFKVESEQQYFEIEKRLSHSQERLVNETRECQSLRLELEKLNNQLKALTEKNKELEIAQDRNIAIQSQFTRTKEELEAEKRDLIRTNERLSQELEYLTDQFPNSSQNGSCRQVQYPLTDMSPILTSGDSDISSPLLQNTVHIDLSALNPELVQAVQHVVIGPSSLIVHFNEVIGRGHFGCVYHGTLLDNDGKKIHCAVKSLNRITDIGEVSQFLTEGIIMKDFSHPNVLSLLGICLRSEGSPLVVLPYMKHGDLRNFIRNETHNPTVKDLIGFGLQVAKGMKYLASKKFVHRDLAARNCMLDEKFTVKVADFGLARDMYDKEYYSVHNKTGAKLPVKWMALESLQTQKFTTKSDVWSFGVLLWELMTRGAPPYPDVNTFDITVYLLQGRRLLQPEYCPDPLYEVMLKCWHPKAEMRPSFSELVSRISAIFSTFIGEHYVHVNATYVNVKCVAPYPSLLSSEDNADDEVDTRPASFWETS

| IC50 [1] [nM] | IC50 [2] [nM] | IC50 [3] [nM] | Molecule | also measured |
| --- | --- | --- | --- | --- |
| 50 to 250 | < 50 | 50 to 250 | O=C(Cc1ccccc1)NC(=S)Nc1ccc(Oc2ccnc3cc(C(=O)NCCN4CCOCC4)sc23)c(F)c1 [Example 2, l-(4-(2-(2-morpholinoethylcarbamoyl)thieno[3,2-b]pyridin-7-yloxy)-3-fluorophenyl)-3-(2-phenylacetyl)thiourea] |  |
| 50 to 250 | 50 to 250 | 50 to 250 | CON(C)C(=O)c1cc2nccc(Oc3ccc(NC(=S)NC(=O)Cc4ccccc4)cc3F)c2s1 [Example 10, 1-(4-(2-(N-methoxy-N-methylcarbamoyl)thieno[3,2-b]pyridin-7-yloxy)-3-fluorophenyl)-3-(2-phenylacetyl)thiourea] |  |
| 50 to 250 | 50 to 250 | < 50 | O=C(Cc1ccccc1)NC(=S)Nc1ccc(Oc2ncnc3cc(C(=O)NCCN4CCOCC4)sc23)c(F)c1 [Example 22, 1-(4-(6-(2-Morpholinoethylcarbamoyl)thieno[3,2-d]pyrimidin-4-yloxy)-3-fluorophenyl)-3-(2-phenylacetyl)thiourea] |  |
| 50 to 250 | < 50 | 50 to 250 | CN(C)C(=O)c1cc2ncnc(Oc3ccc(NC(=S)NC(=O)Cc4ccccc4)cc3F)c2s1 [Example 23, 1-(4-(6-(Dimethylcarbamoyl)thieno[3,2-d]pyrimidin-4-yloxy)-3-fluorophenyl)-3-(2-phenylacetyl)thiourea] |  |
| 50 to 250 | 50 to 250 | < 50 | CN(Cc1ccco1)C(=O)c1cc2nccc(Oc3ccc(NC(=S)NC(=O)Cc4ccccc4)cc3F)c2s1 [Example 35, 7-[2-Fluoro-4-(3-phenylacetyl-thioureido)-phenoxy]-thieno[3,2-b]pyridine-2-carboxylic acid furan-2-ylmethyl-methyl-amide] |  |
| 50 to 250 | > 500 | 50 to 250 | CC(C)N(CCNC(=O)c1cc2nccc(Oc3ccc(NC(=S)NC(=O)Cc4ccccc4)cc3F)c2s1)C(C)C [Example 36, 7-[2-Fluoro-4-(3-phenylacetyl-thioureido)-phenoxy]-thieno[3,2-b]pyridine-2-carboxylic acid (2-diisopropylamino-ethyl)-amide, formate salt] |  |
|  |  |  | O=C(Cc1ccccc1)NC(=S)Nc1ccc(Oc2ccnc3cc(C(=O)N4CC[C@H](O)C4)sc23)c(F)c1 [Example 39, (S)-N-(3-Fluoro-4-(2-(3-hydroxypyrrolidine-1-carbonyl)thieno[3,2-b]pyridin-7-yloxy)phenylcarbamothioyl)-2-phenylacetamide] | Tumor Growth Inhibition (%) ([4]; 30 mg/kg once daily IP, vehicle DMSO, 14 days): b (% TGI in the range of 50-74) |
| 50 to 250 | < 50 | 50 to 250 | NC(=O)[C@@H]1CCCN1C(=O)c1cc2nccc(Oc3ccc(NC(=S)NC(=O)Cc4ccccc4)cc3F)c2s1 [Example 40, (S)-1-(7-(2-Fluoro-4-(3-(2-phenylacetyl)thioureido)phenoxy)thieno[3,2-b]pyridine-2-carbonyl)pyrrolidine-2-carboxamide] |  |
|  |  |  | O=C(Cc1ccccc1)NC(=S)Nc1ccc(Oc2ccnc3cc(-c4ccc(CN5CCOCC5)cc4)sc23)c(F)c1 [Example 56, 1-(3-Fluoro-4-(2-(4-(morpholinomethyl)phenyl)thieno[3,2-b]pyridin-7-yloxy)phenyl)-3-(2-phenylacetyl)thiourea] | Tumor Growth Inhibition (%) ([4]; 30 mg/kg once daily IP, vehicle DMSO, 12 days): c (% TGI in the range of 25-49) |
|  |  |  | CCn1ccnc1-c1cc2nccc(Oc3ccc(NC(=S)NC(=O)Cc4ccccc4)cc3F)c2s1 [Example 73, N-(4-(2-(1-Ethyl-1H-imidadzol-2-yl)thieno[3,2-b]pyridin-7-yloxy)-3-fluorophenylcarbamothioyl)-2-phenylacetamide] | Tumor Growth Inhibition (%) ([5]; 100 mg/kg once daily PO, vehicle 5% DMSO - 1% Tween-80 in water, 14 days): c (% TGI in the range of 25-49) |
|  |  |  | CCn1cnc(-c2cc3nccc(Oc4ccc(NC(=S)NC(=O)Cc5ccccc5)cc4F)c3s2)c1 [Example 77, N-(4-(2-(1-Ethyl-1H-imidazol-4-yl)thieno[3,2-b]pyridin-7-yloxy)-3-fluorophenylcarbamothioyl)-2-phenylacetamide] | Tumor Growth Inhibition (%) [5, 8]: b (% TGI in the range of 50-74); Tumor Growth Inhibition (%) ([6]; 6 days): d (% TGI in the range of 0-24); Tumor Growth Inhibition (%) [4, 9]: b (% TGI in the range of 50-74); Tumor Growth Inhibition (%) [4, 10]: b (% TGI in the range of 50-74) |
|  |  |  | Cn1cc(-c2cc3nccc(Oc4ccc(NC(=S)NC(=O)Cc5ccccc5)cc4F)c3s2)cn1 [Example 81, N-(3-Fluoro-4-(2-(1-methyl-1H-pyrazol-4-yl)thieno[3,2-b]pyridin-7-yloxy)phenylcarbamothioyl)-2-phenylacetamide] | Tumor Growth Inhibition (%) ([6]; 14 days): c (% TGI in the range of 25-49) |
| 50 to 250 | < 50 | < 50 | O=C(Cc1ccccc1)NC(=S)Nc1ccc(Oc2ncnc3cc(C(=O)N4CCCC4)sc23)c(F)c1 [Example 142, N-(3-Fluoro-4-(6-(pyrrolidine-1-carbonyl)thieno[3,2-d]pyrimidin-4-yloxy)phenylcarbamothioyl)-2-phenylacetamide] |  |
|  |  |  | CC(C)(C)OC(=O)NC1CCN(C(=O)c2cc3ncnc(Oc4ccc(NC(=S)NC(=O)Cc5ccccc5)cc4F)c3s2)C1 (stereo not drawn) [Example 148, tert-Butyl 1-(4-(2-fluoro-4-(3-(2-phenylacetyl)thioureido)phenoxy)thieno[3,2-d]pyrimidine-6-carbonyl)pyrrolidin-3-ylcarbamate] | Tumor Growth Inhibition (%) ([5]; 30 mg/kg once daily IP, vehicle 50/50 DMSO:40/60 PEG/0.2 N HCl in saline, 10 days): c (% TGI in the range of 25-49); Tumor Growth Inhibition (%) [7]: c (% TGI in the range of 25-49) |
|  |  |  | Cn1cnc(-c2cc3nccc(Oc4ccc(NC(=S)NC(=O)Cc5ccccc5)cc4)c3s2)c1 [Example 201, N-(4-(2-(1-Methyl-1H-imidazol-4-yl)thieno[3,2-b]pyridin-7-yloxy)phenylcarbamothioyl)-2-phenylacetamide] | Tumor Growth Inhibition (%) [4, 9]: c (% TGI in the range of 25-49); Tumor Growth Inhibition (%) [4, 10]: c (% TGI in the range of 25-49) |
| < 50 | > 500 | > 500 | O=C(Cc1ccccc1)NC(=S)Nc1ccc(Oc2ccnc3cc[nH]c23)c(F)c1 [Example 221, N-(4-(1H-Pyrrolo[3,2-b]pyridin-7-yloxy)-3-fluorophenylcarbamothioyl)-2-phenyl acetamide] |  |
|  |  |  | CCn1cnc(-c2cc3nccc(Oc4ccc(NC(=S)NC(=O)Cc5ccccc5OC)cc4F)c3s2)c1 [Example 243, 1-{4-[2-(1-Ethyl-1H-imidazol-4-yl)-thieno[3,2-b]pyridin-7-yloxy]-3-fluoro-phenyl}-3-[2-(2-methoxy-phenyl)-acetyl]-thiourea] | Tumor Growth Inhibition (%) [5, 8]: b (% TGI in the range of 50-74); Tumor Growth Inhibition (%) ([6]; 11 days): b (% TGI in the range of 50-74) |
|  |  |  | C#Cc1ccccc1CC(=O)NC(=S)Nc1ccc(Oc2ccnc3cc(-c4cn(CC)cn4)sc23)c(F)c1 [drawing 496] | Tumor Growth Inhibition (%) ([4]; 40 mg/kg once daily p.o., 14 days): b (% TGI in the range of 50-74) |

| Molecule | IC50 [1] [nM] | IC50 [2] [nM] | IC50 [3] [nM] | also measured |
| --- | --- | --- | --- | --- |
| 1-(4-(2- (morpholinylcarbamoyl) thieno[3,2- b]pyridin-7-yloxy)-3- fluorophenyl)-3-(2- phenylacetyl)thiourea [Example 3] | 50 to 250 | 250 to 500 | 50 to 250 |  |
| 1-(4-(6-(4-N- Methylpiperazylcarbamoyl) thieno[3,2- d]pyrimidin-4-yloxy)- 3-fluorophenyl)-3-(2- phenylacetyl)thiourea [Example 24] | 50 to 250 | 250 to 500 | > 500 |  |
| COC(=O)C(C)N(C(=S)NC(=O)Cc1ccccc1)c1ccc(Oc2ccnc3cc(C(N)=O)sc23)c(F)c1 (stereo not drawn) [Example 11, Methyl 2-(1-(4-(2-(carbamoyl)thieno [3,2-b]pyridin-7-yloxy)-3-fluorophenyl)-3-(2-phenylacetyl)thioureido) propanoate] | 50 to 250 | > 500 | 50 to 250 |  |
